Reference: patent publication US11986471B2, “Compounds and methods of use” (Tango Therapeutics, Inc., priority 2018, dated 2024)

Key:
PRMT5 [1] = molecular target: T1, PRMT5 (Homo sapiens, UniProt O14744); assay: PRMT5 IC50 assay in the presence of SAM as cofactor; type: biochemical
T1 construct: purchased Viva (custom protein)
Method in brief: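 Human PRMT5 inhibition, IC50 in μM; cofactor varied (SAM / MTA / none).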

PRMT5 [2] = molecular target: T1, PRMT5; assay: PRMT5 IC50 assay in the presence of MTA as cofactor; type: biochemical; conditions: for IC50: PRMT5, MTA as cofactor
Method in brief: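 Each compound is tested on PRMT5 in the presence of SAM, of MTA, and without any cofactor. Ki values are then back-calculated using fixed factors of 1.5 (SAM) and 13.5 (MTA), and the two Ki values are compared as a ratio.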

PRMT5 [3] = molecular target: T1, PRMT5; assay: PRMT5 IC50 assay with no cofactor; type: biochemical
Method in brief: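 Three cofactor conditions tested for PRMT5 inhibition: none, MTA and SAM, each giving an IC50. For conversion to Ki, the MTA-condition IC50 is divided by 13.5 and the SAM-condition IC50 by 1.5, and the two Ki values are expressed as a SAM/MTA ratio.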

HAP1 MTAP-deleted = assay: SDMA in-cell western assay, HAP1 MTAP-deleted cell line; type: cell-based; conditions: for IC50: Homo sapiens, HAP1 MTAP-deleted cell line; for MTAP Intact/Deleted Ratio: IC50 ratio HAP1 MTAP-intact / HAP1 MTAP-deleted
Method in brief: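 MTAP-null HAP1 cells, the deleted member of an isogenic pair with endogenously MTAP-expressing HAP1, are treated with compound. SDMA is then quantified by in-cell western and an IC50 is calculated.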

HAP1 MTAP-intact = assay: SDMA in-cell western assay, HAP1 MTAP-intact cell line; type: cell-based; conditions: Homo sapiens
Method in brief: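 Cells from two matched HAP1 lines, MTAP-null and MTAP-expressing at endogenous levels, are treated with compound. SDMA is then quantified by in-cell western and an IC50 is calculated for each line.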

[4] = ratio between the Ki in the presence of SAM and the Ki in the presence of MTA
[5] = ratio between Ki in the presence of SAM and Ki in the presence of MTA

T1 sequence (O14744 whole entry): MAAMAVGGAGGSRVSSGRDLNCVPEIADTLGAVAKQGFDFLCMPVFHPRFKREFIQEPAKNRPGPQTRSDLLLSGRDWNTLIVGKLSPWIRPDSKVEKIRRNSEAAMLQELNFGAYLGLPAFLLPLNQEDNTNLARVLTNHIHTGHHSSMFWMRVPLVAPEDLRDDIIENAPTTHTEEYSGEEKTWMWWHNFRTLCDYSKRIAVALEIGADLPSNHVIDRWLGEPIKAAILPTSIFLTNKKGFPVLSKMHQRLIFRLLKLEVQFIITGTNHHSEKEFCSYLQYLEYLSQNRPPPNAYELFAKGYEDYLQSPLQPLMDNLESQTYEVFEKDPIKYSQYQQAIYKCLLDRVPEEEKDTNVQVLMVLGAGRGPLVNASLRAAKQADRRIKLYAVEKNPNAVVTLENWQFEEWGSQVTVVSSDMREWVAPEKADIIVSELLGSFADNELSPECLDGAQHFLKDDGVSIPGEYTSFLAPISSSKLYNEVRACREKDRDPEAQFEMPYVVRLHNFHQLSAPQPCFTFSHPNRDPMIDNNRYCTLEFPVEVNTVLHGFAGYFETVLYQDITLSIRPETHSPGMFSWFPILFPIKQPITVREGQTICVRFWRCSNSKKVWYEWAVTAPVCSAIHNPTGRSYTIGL
T1 sequence (Q9BQA1 whole entry partner): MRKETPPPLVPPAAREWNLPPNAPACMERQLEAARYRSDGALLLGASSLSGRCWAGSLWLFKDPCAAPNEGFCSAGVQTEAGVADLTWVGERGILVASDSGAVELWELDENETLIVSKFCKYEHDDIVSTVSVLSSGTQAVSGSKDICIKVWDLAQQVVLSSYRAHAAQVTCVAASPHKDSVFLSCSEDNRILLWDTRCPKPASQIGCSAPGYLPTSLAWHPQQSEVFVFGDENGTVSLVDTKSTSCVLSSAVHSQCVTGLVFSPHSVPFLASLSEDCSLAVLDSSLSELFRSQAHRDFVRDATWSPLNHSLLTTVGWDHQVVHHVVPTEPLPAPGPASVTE

Row | SMILES | IC50 (PRMT5 [1]) [µM] | IC50 (PRMT5 [2]) [µM] | IC50 (PRMT5 [3]) [µM] | IC50 (HAP1 MTAP-deleted) [µM] | IC50 (HAP1 MTAP-intact) [µM] | IC50 (PRMT5 [3]; read-out: No Co-factor IC50) [µM] | SAM/MTA Ratio (PRMT5 [2]; [4]) | MTAP Intact/Deleted Ratio (HAP1 MTAP-deleted) | SAM/MTA Ratio (PRMT5 [2]; [5])
1 | Cc1ncoc1COc1ccc2c(c1Br)CCN(C[C@@H](O)CNC(=O)c1cccc(NC3COC3)c1)C2 [Compound 381, (S)—N-(3-(5-bromo-6-((4-methyloxazol-5-yl)methoxy)-3,4-dihydroisoquinolin-2(1H)-yl)-2-hydroxypropyl)-3-(oxetan-3-ylamino)benzamide] | 0.5 to 5 | 0.5 to 5 |  | ≥ 10 | ≥ 10 | ≥ 5 |  | C* (an IC50 ratio of less than 3 fold between the IC50 in the HAP1 MTAP-intact cell line and the HAP1 MTAP-deleted cell line) | A (a Ki ratio greater than or equal to 10 fold between the Ki in the presence of SAM and the Ki in the presence of MTA)
2 | CCC(=O)N1CCN(c2cc(C(=O)NC[C@H](O)CN3CCc4c(ccc(OCc5cnco5)c4Cl)C3)cc(NC3CCC3)n2)CC1 [Compound 570, (S)—N-(3-(5-chloro-6-(oxazol-5-ylmethoxy)-3N-dihydroisoquinolin-2(1H)-yl)-2-hydroxypropyl)-2-(cyclobutylamino)-6-(4-propionylpiperazin-1-yl)isonicotinamide] | 0.05 to 0.5 | 0.05 to 0.5 | 0.5 to 5 | < 1 | ≥ 10 |  | A (a Ki ratio greater than or equal to 10 fold between the Ki in the presence of SAM and the Ki in the presence of MTA) | A* (an IC50 ratio greater than or equal to 10 fold between the IC50 in the HAP1 MTAP-intact cell line and the HAP1 MTAP-deleted cell line) | 
3 | Cc1ncoc1COc1ccc2c(n1)CCN(C[C@@H](O)CNC(=O)c1ccnc(NC3CCC3)c1)C2 [Compound 467, 2-(cyclobutylamino)-N-[(2S)-2-hydroxy-3-[2-[(4-methyloxazol-5-yl)methoxy]-7,8-dihydro-5H-1,6-naphthyridin-6-yl]propyl]pyridine-4-carboxamide] | 0.05 to 0.5 | 0.05 to 0.5 | ≥ 5 | 1 to 10 | ≥ 10 |  | A (a Ki ratio greater than or equal to 10 fold between the Ki in the presence of SAM and the Ki in the presence of MTA) | C* (an IC50 ratio of less than 3 fold between the IC50 in the HAP1 MTAP-intact cell line and the HAP1 MTAP-deleted cell line) | 
4 | Cc1ncoc1COc1ccc2c(c1C)CCN(C[C@@H](O)CNC(=O)c1cc(NC3COC3)nc(N3CCN(C(C)(C)C)CC3)n1)C2 [Compound 435, 2-(4-tert-butylpiperazin-1-yl)-N-[(2S)-2-hydroxy-3-{5-methyl-6-[(4-methyl-1,3-oxazol-5-yl)methoxy]-1,2,3,4-tetrahydroisoquinolin-2-yl}propyl]-6-[(oxetan-3-yl)amino]pyrimidine-4-carboxamide] | 0.05 to 0.5 | 0.05 to 0.5 | ≥ 5 | ≥ 10 | ≥ 10 |  | A (a Ki ratio greater than or equal to 10 fold between the Ki in the presence of SAM and the Ki in the presence of MTA) | C* (an IC50 ratio of less than 3 fold between the IC50 in the HAP1 MTAP-intact cell line and the HAP1 MTAP-deleted cell line) | 
5 | Cc1ncoc1COc1ccc2c(c1C)CCN(C[C@@H](O)CNC(=O)c1cc(NC3CCC3)nc(OCCN(C)C)c1)C2 [Compound 500, 2-(cyclobutylamino)-6-[2-(dimethylamino)ethoxy]-N-[(2S)-2-hydroxy-3-{5-methyl-6-[(4-methyl-1,3-oxazol-5-yl)methoxy]-1,2,3,4-tetrahydroisoquinolin-2-yl}propyl]pyridine-4-carboxamide] | 0.05 to 0.5 | 0.05 to 0.5 | 0.5 to 5 | < 1 | ≥ 10 |  | A (a Ki ratio greater than or equal to 10 fold between the Ki in the presence of SAM and the Ki in the presence of MTA) | A* (an IC50 ratio greater than or equal to 10 fold between the IC50 in the HAP1 MTAP-intact cell line and the HAP1 MTAP-deleted cell line) | 

Continued, in another order:

Row | IC50 (PRMT5 [1]) [µM] | IC50 (PRMT5 [2]) [µM] | IC50 (PRMT5 [3]) [µM] | IC50 (HAP1 MTAP-deleted) [µM] | IC50 (HAP1 MTAP-intact) [µM] | IC50 (PRMT5 [3]; read-out: No Co-factor IC50) [µM] | SMILES | SAM/MTA Ratio (PRMT5 [2]; [4]) | MTAP Intact/Deleted Ratio (HAP1 MTAP-deleted) | SAM/MTA Ratio (PRMT5 [2]; [5])
6 | 0.05 to 0.5 | < 0.05 | 0.5 to 5 | < 1 | 1 to 10 |  | CC(C)CC(=O)N1CCC(Nc2cc(C(=O)NC[C@H](O)CN3CCc4cc(OCc5cnco5)ccc4C3)ccn2)CC1 [Compound 446, N-[(2S)-2-hydroxy-3-[6-(oxazol-5-ylmethoxy)-3,4-dihydro-1H-isoquinolin-2-yl]propyl]-2-[[1-(3-methylbutanoyl)-4-piperidyl]amino]pyridine-4-carboxamide] | A (a Ki ratio greater than or equal to 10 fold between the Ki in the presence of SAM and the Ki in the presence of MTA) | C* (an IC50 ratio of less than 3 fold between the IC50 in the HAP1 MTAP-intact cell line and the HAP1 MTAP-deleted cell line) | 
7 | 0.05 to 0.5 | 0.05 to 0.5 | 0.5 to 5 | < 1 | 1 to 10 |  | COc1ccc(C(=O)N2CCc3cc(C(=O)NC[C@H](O)CN4CCc5cc(OCc6ocnc6C)ccc5C4)ccc3C2)cc1 [Compound 498, (S)—N-(2-hydroxy-3-(6-((4-methyloxazol-5-yl)methoxy)-3,4-dihydroisoquinolin-2(1H)-yl)propyl)-2-(4-methoxybenzoyl)-1,2,3,4-tetrahydroisoquinoline-6-carboxamide] | A (a Ki ratio greater than or equal to 10 fold between the Ki in the presence of SAM and the Ki in the presence of MTA) | B* (an IC50 ratio greater than or equal to 3 fold but lower than 10 fold between the IC50 in the HAP1 MTAP-intact cell line and the HAP1 MTAP-deleted cell line) | 
8 | 0.05 to 0.5 | 0.05 to 0.5 |  | < 1 | < 1 | ≥ 5 | Cc1ncoc1COc1ccc2c(c1)CCN(C[C@@H](O)CNC(=O)c1cc(NC3CCCC3)ncn1)C2 [Compound 333, 6-(cyclopentylamino)-N-[(2S)-2-hydroxy-3-{6-[(4-methyl-1,3-oxazol-5-yl)methoxy]-1,2,3,4-tetrahydroisoquinolin-2-yl}propyl]pyrimidine-4-carboxamide] |  | C* (an IC50 ratio of less than 3 fold between the IC50 in the HAP1 MTAP-intact cell line and the HAP1 MTAP-deleted cell line) | A (a Ki ratio greater than or equal to 10 fold between the Ki in the presence of SAM and the Ki in the presence of MTA)
9 | 0.05 to 0.5 | 0.05 to 0.5 | 0.5 to 5 | 1 to 10 | ≥ 10 |  | COc1ccc(C(=O)N2CCc3cc(C(=O)NC[C@H](O)CN4CCc5c(ccc(OCc6cnco6)c5C)C4)ccc3C2)cc1 [Compound 540, N-[(2S)-2-hydroxy-3-{5-methyl-6-[(1,3-oxazol-5-yl)methoxy]-1,2,3,4-tetrahydroisoquinolin-2-yl}propyl]-2-(4-methoxybenzoyl)-1,2,3,4-tetrahydroisoquinoline-6-carboxamide] | A (a Ki ratio greater than or equal to 10 fold between the Ki in the presence of SAM and the Ki in the presence of MTA) | C* (an IC50 ratio of less than 3 fold between the IC50 in the HAP1 MTAP-intact cell line and the HAP1 MTAP-deleted cell line) | 
10 | 0.05 to 0.5 | < 0.05 | 0.5 to 5 | ≥ 10 | ≥ 10 |  | Cc1ncoc1COc1ccc2c(c1)CCN(C[C@@H](O)CNC(=O)c1cc(NC3CCC3)nc(N3CCN(C(C)C)CC3)c1)C2 [Compound 428, 2-(cyclobutylamino)-N-[(2S)-2-hydroxy-3-{6-[(4-methyl-1,3-oxazol-5-yl)methoxy]-1,2,3,4-tetrahydroisoquinolin-2-yl}propyl]-6-[4-(propan-2-yl)piperazin-1-yl]pyridine-4-carboxamide] | A (a Ki ratio greater than or equal to 10 fold between the Ki in the presence of SAM and the Ki in the presence of MTA) | C* (an IC50 ratio of less than 3 fold between the IC50 in the HAP1 MTAP-intact cell line and the HAP1 MTAP-deleted cell line) | 
11 | 0.5 to 5 | 0.5 to 5 |  | ≥ 10 | ≥ 10 | ≥ 5 | CC(C)(C)c1cc(C(=O)NC[C@H](O)CN2CCc3cc(OCc4cnco4)ccc3C2)cc(NC2CCC2)n1 [Compound 308, (S)-2-(tert-butyl)-6-(cyclobutylamino)-N-(2-hydroxy-3-(6-(oxazol-5-ylmethoxy)-3,4-dihydroisoquinolin-2(1H)-yl)propyl)isonicotinamide] |  | C* (an IC50 ratio of less than 3 fold between the IC50 in the HAP1 MTAP-intact cell line and the HAP1 MTAP-deleted cell line) | A (a Ki ratio greater than or equal to 10 fold between the Ki in the presence of SAM and the Ki in the presence of MTA)
12 | 0.05 to 0.5 | 0.05 to 0.5 |  | 1 to 10 | ≥ 10 | 0.5 to 5 | CC(=O)N1CCN(c2nc(NC3COC3)cc(C(=O)NC[C@H](O)CN3CCc4cc(OCc5ocnc5C)ccc4C3)n2)CC1 [Compound 401, 2-(4-acetylpiperazin-1-yl)-N-[(2S)-2-hydroxy-3-{6-[(4-methyl-E3-oxazol-5-yl)methoxy]-1,2,3,4-tetrahydroisoquinolin-2-yl}propyl]-6-[(oxetan-3-yl)amino]pyrimidine-4-carboxamide] |  | B* (an IC50 ratio greater than or equal to 3 fold but lower than 10 fold between the IC50 in the HAP1 MTAP-intact cell line and the HAP1 MTAP-deleted cell line) | A (a Ki ratio greater than or equal to 10 fold between the Ki in the presence of SAM and the Ki in the presence of MTA)
